From patent US20070286886A1, “Materials And Methods For Inducing Apoptosis In Adipocytes” (University of Tennessee Research Foundation, priority 2004, published 2007)

Legend:
caspase-3 = test: Caspase-3 mRNA expression by real-time PCR in 3T3-L1 and UCP2-transfected 3T3-L1 adipocytes; assay type: cell-based
Description: (§1) 3T3-L1 preadipocytes were incubated at a density of 8000 cells/cm2 (10 cm2 dish) and grown in Dulbecco's modified Eagle's medium (DMEM) containing 10% FBS and antibiotics (adipocyte medium) at 37° C. in 5% CO2 in air. Confluent preadipocytes were induced to differentiate with a standard differentiation medium consisting of DMEM-F10 (1:1, vol/vol) medium supplemented with 1% FBS, 1 μM dexamethasone, IBMX (0.5 mM), and antibiotics (1% penicillin-streptomycin). Preadipocytes were maintained in this differentiation medium for 3 days and subsequently cultured in adipocyte medium. Cultures were re-fed every 2-3 days to allow 90% cells to reach full differentiation before they were chemically treated. Chemicals were freshly diluted in adipocyte medium before treatment. Cells were washed with fresh adipocyte medium, re-fed with medium containing the different treatments, and incubated at 37° C. in 5% CO2 in air before analysis. Cell viability was measured via trypan blue exclusion.
(§2) UCP2 full-length cDNAs were amplified by […] using mRNAs isolated from mouse white adipose tissues. The PCR primers for this amplification are shown as follows: UCP2 forward, 5′-[…]-3′, reverse, 5′-[…]-3′. The PCR products were then subcloned into pcDNA4/His expression vectors. The linearized constructs were transfected into 3T3-L1 preadipocytes using lipofectamine plus standard protocol (Invitrogen, Carlsbad, Calif.). After 48 h of transfection, cells were split and cultured in selective medium containing 400 ug/ml zeocin for the selection of resistant colonies. Cells were fed with selective medium every 3 days until resistant colonies could be identified. These resistant foci were picked, expanded, tested for expression, and frozen for future experiments.
A total cellular RNA isolation kit (Ambion, Austin, Tex.) was used to extract total RNA from 3T3-L1 cells according to the manufacturer's instructions.
Adipocyte caspase-1, caspase-3, Bcl-2, and Bax mRNA were quantitatively measured using a Smart Cycler Real Time PCR System (Cepheid, Sunnyvale, Calif.) with a TaqMan 1000 Core Reagent Kit (Applied Biosystems, Branchburg, N.J.). The primers and probe sets were ordered from Applied Biosystems TaqMan Assays-on-Demand Gene Expression primers and probe set collection according to the manufacturer's instructions. Pooled 3T3-L1 adipocyte total RNA was serial-diluted in the range of 1.5625-25 ng and used to establish a standard curve; total RNAs for unknown samples were also diluted in this range. Reactions of quantitative RT-PCR for standards and unknown samples were Cepheid, Sunnyvale, Calif.) and TaqMan Real Time PCR Core Kit. The mRNA quantitation for each sample was further normalized using the corresponding 18 s quantitation, with a forward primer, 5′-[…]-3′, and a reverse primer, 5′-[…]-3′.
3T3-L1 preadipocytes were incubated at a density of 8000 cells/cm2 (10 cm2 dish) and grown in Dulbecco's modified Eagle's medium (DMEM) containing 10% FBS and antibiotics at 37° C. in 5% CO2. Confluent preadipocytes were induced to differentiate with a standard differentiation medium consisting of DMEM-F 10 (1:1, vol/vol) medium supplemented with 1% FBS, 1 μM dexamethasone, IBMX (0.5 mM) and antibiotics (1% penicillin/streptomycin). Preadipocytes were maintained in this differentiation medium for 3 days and subsequently cultured in adipocyte medium. Cultures were re-fed every 2-3 days to allow 90% cells to reach fully differentiation before conducting chemical treatment. Chemicals were freshly diluted in adipocyte medium before treatment. Cells were washed with fresh adipocyte medium, re-fed with medium containing the different treatments, and incubated at 37° C. in 5% CO2 in air before analysis. Cell viability was measured via trypan blue exclusion.
Adipocytes were incubated with adipocyte medium for 24 h with or without GDP, BK 8644, GDP plus BK8644 before total RNA extraction. […]

UCP2 = UCP2 expression in 3T3-L1 cells (western blot, UCP2/actin); assay type: cell-based, mouse; settings: 3T3-L1 cells, BK8644
Description: Duplex siRNA corresponding to UCP2 gene was designed and chemically synthesized by Invitrogen. The following gene-specific sequences were used successfully: Si-UCP2 sense 5′-GCCUCUACGACUCUGUCAA-3′ and antisense […]. Transfection of siRNA was performed with Oligofectamine™ reagent (Invitrogen Life Technologies, CA) in 6-well plates. Briefly, Oligofectamine diluted in DMEM was applied to the duplex siRNA mixture, and the formulation was continued for 20 min to allow the Oligofectamine-oligonucleotide complex to form. Per well, 800 μl of plating medium and 10 ul of 20 μM duplex siRNA duplex siRNA formulated with 4 μl of Oligofectamine were applied in a final volume of 1 ml. Cells were then incubated at […] in a CO2 incubator for 4 hrs. […]
Adipocytes were harvested and sonicated in a homogenization buffer containing 50 mM Tris-HCl (PH 7.4), 250 mM sucrose, 1 mM EDTA, 1 mM dithiothreitol, 1% (v/v) Triton X, 10% protease cocktail (Sigma). […] Homogenate intrafranatant protein from equal numbers of cells (determined via protein quantitation using Bradford method as described previously) was boiled in Laemmli sample buffer and subject to 10% SDS-polyacrylamide gel electrophoresis (PAGE). […] Visualization was detected with chemiluminescence reagent, using the Western Blotting Luminal Reagent (Santa Cruz Biotechnology, CA).

caspase-1 = test: Caspase-1 mRNA expression by real-time PCR in 3T3-L1 and UCP2-transfected 3T3-L1 adipocytes; assay type: cell-based; settings: 24 h, control and UCP2-transfected 3T3-L1 cells
Description: as §1
as §2, with “Cells were fed with selective medium every 3 days until resistant colonies could be identified. These resistant foci were picked, expanded, tested for expression, and frozen for future experiments.” left out
(§3) Adipocyte caspase-1, caspase-3, Bcl-2, and Bax mRNA were quantitatively measured using a Smart Cycler Real Time PCR System (Cepheid, Sunnyvale, Calif.) with a TaqMan 1000 Core Reagent Kit (Applied Biosystems, Branchburg, N.J.). […] Reactions of quantitative RT-PCR for standards and unknown samples were Cepheid, Sunnyvale, Calif.) and TaqMan Real Time PCR Core Kit. The mRNA quantitation for each sample was further normalized using the corresponding 18 s quantitation, with a forward primer, 5′-[…]-3′, and a reverse primer, 5′-[…]-3′.

[1] = test system: 3T3-L1 and UCP2-transfected 3T3-L1 cells; test: ATP production (microplate luminometer) in adipocytes; assay type: cell-based; settings: 4 h
Description: Adipocytes were incubated with adipocyte medium for 4 h with or without 1α,25-(OH)2-D3. ATP levels were measured using ENLITEN Total ATP Rapid Biocontamination Detection Kit (Promega, Madison, […].) according to the manufacturer's instructions. Cellular ATP was extracted as described previously and measured using a microplate luminometer (Labsystem, Helsinki, Finland). The integration time of the luminometer was set at 1 s with normal gain. Measurement of cytosolic Ca^2+ ([Ca^2+]c) and mitochondrial calcium([Ca^2+]m)

3T3-L1 and L1-UCP2 cells = test: Adipocyte apoptosis in 3T3-L1 and L1-UCP2 cells; assay type: cell-based
Description: as §1, with “Cells were washed with fresh adipocyte medium, re-fed with medium containing the different treatments, and incubated at 37° C. in 5% CO2 in air before analysis.” left out, “exclusion. […]” for “exclusion.”
as §3

Structure (SMILES) | caspase-3 expression (caspase-3; 3T3-L1 cells, Bay K 8644 5-100 nM range of FIG. 15) | effect on UCP2 expression (UCP2) | caspase-1 expression (caspase-1; high dose 100 nM, P<0.01) | caspase-1 expression (caspase-1; physiological low doses 0.1 nM, 1 nM, 5 nM, 10 nM, P<0.05) | caspase-3 expression (caspase-3; high dose 100 nM, 24 h, control and UCP2-transfected 3T3-L1 cells, P<0.01) | caspase-3 expression (caspase-3; physiological low doses 0.1 nM, 1 nM, 5 nM, 10 nM, 24 h, control and UCP2-transfected 3T3-L1 cells, P<0.05) | ATP production ([1]; high dose (100 nM), P<0.05) | ATP production ([1]; low dose, P<0.01) | apoptosis (3T3-L1 and L1-UCP2 cells; high dose (100 nM), 3T3-L1 and L1-UCP2 cells, P<0.05) | UCP2 overexpression-induced apoptosis (3T3-L1 and L1-UCP2 cells; physiological doses (0.1-10 nM), L1-UCP2 cells, P<0.01)
COC(=O)C1=C(C)NC(C)=C([N+](=O)[O-])C1c1ccccc1C(F)(F)F (stereo not shown) [Bay K 8644] | dose-dependently | no effect |  |  |  |  |  |  |  | 
C=C1/C(=C\C=C2/CCC[C@]3(C)[C@@H]([C@H](C)CCCC(C)(C)O)CC[C@@H]23)C[C@@H](O)C[C@@H]1O [1α,25-(OH)2-D3, 1α,25-dihydroxyvitamin D3] |  |  | stimulated | inhibited | stimulated | inhibited | inhibited | markedly increased | stimulated | protected
